What was measured:
Assay in all cases: relative viability (nuclei count vs DMSO), 5 days (fraction); higher = more cells survive
RO-3306 + Phenformin = compound: C1=CC2=C(C=CC(=C2)C=C3C(=O)NC(=NCC4=CC=CS4)S3)N=C1 [RO-3306] + N=C(N)NC(=N)NCCc1ccccc1 [Phenformin] (partner 250 µM)
In short: (§1)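 Five library-drug doses in √10 steps were combined with a fixed anchor-drug dose, or a single drug was given alone, by pin tool to lung cancer cell lines in 1536-well plates the day after seeding. Nuclei were stained and counted after 5 days. Relative viability is the nuclei count in treated wells over that in vehicle wells, taken as the median of duplicate plates.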

[1] = compound: O=S(=O)(c1ccccc1)N(CC(F)(F)F)c1ccc(C(O)(C(F)(F)F)C(F)(F)F)cc1 + Nc1ncn([C@H]2C[C@H](O)[C@@H](CO)O2)c(=O)n1 [Decitabine] (partner 2 µM)
In short: as §1

RO-3306 + Linsitinib = compound: C1=CC2=C(C=CC(=C2)C=C3C(=O)NC(=NCC4=CC=CS4)S3)N=C1 [RO-3306] + C[C@]1(O)C[C@@H](c2nc(-c3ccc4ccc(-c5ccccc5)nc4c3)c3c(N)nccn32)C1 [Linsitinib] (partner 1 µM)
In short: as §1

RO-3306 + Decitabine = compound: C1=CC2=C(C=CC(=C2)C=C3C(=O)NC(=NCC4=CC=CS4)S3)N=C1 [RO-3306] + Nc1ncn([C@H]2C[C@H](O)[C@@H](CO)O2)c(=O)n1 [Decitabine] (partner 2 µM)
In short: as §1

Cell Line | relative viability (RO-3306 + Phenformin; first compound 0.01 µM) | relative viability (RO-3306 + Phenformin; first compound 0.03162 µM) | relative viability (RO-3306 + Phenformin; first compound 0.1 µM) | relative viability (RO-3306 + Phenformin; first compound 0.3162 µM) | relative viability (RO-3306 + Phenformin; first compound 1 µM) | relative viability ([1]; first compound 0.8 µM) | relative viability ([1]; first compound 2.53 µM) | relative viability ([1]; first compound 8 µM) | relative viability (RO-3306 + Linsitinib; first compound 0.01 µM) | relative viability (RO-3306 + Linsitinib; first compound 0.03162 µM) | relative viability (RO-3306 + Linsitinib; first compound 0.1 µM) | relative viability (RO-3306 + Linsitinib; first compound 0.3162 µM) | relative viability (RO-3306 + Linsitinib; first compound 1 µM) | relative viability (RO-3306 + Decitabine; first compound 0.01 µM) | relative viability (RO-3306 + Decitabine; first compound 0.03162 µM) | relative viability (RO-3306 + Decitabine; first compound 0.1 µM) | relative viability (RO-3306 + Decitabine; first compound 0.3162 µM) | relative viability (RO-3306 + Decitabine; first compound 1 µM)
NCI-H2023 | 0.459 | 0.38 | 0.398 | 0.403 | 0.356 | 0.221 | 0.233 | 0.221 | 0.607 | 0.566 | 0.637 | 0.798 | 0.585 | 0.25 | 0.285 | 0.208 | 0.218 | 0.213
NCI-H1299 | – | – | – | – | – | – | – | – | 1.1 | 0.913 | 1.03 | 1.12 | 1.08 | – | – | – | – | –
BEN | 0.298 | 0.266 | 0.26 | 0.252 | 0.263 | 0.801 | 0.773 | 0.687 | 1.03 | 0.672 | 0.835 | 0.972 | 0.916 | 0.645 | 0.69 | 0.723 | 0.725 | 0.824
NCI-H1623 | 0.61 | 0.597 | 0.579 | 0.58 | 0.568 | – | – | – | – | – | – | – | – | – | – | – | – | –
NCI-H661 | 0.302 | 0.281 | 0.268 | 0.247 | 0.282 | 0.612 | 0.569 | 0.498 | 0.569 | 0.458 | 0.581 | 0.586 | 0.728 | 0.589 | 0.507 | 0.525 | 0.581 | 0.585
NCI-H2342 | 0.591 | 0.519 | 0.527 | 0.569 | 0.586 | 0.82 | 0.837 | 0.738 | – | – | – | – | – | 0.746 | 0.654 | 0.755 | 0.773 | 0.673
SW 1573 | 0.405 | – | 0.363 | 0.341 | 0.351 | 0.542 | 0.543 | 0.541 | 0.869 | 0.721 | 0.805 | 0.762 | 0.727 | 0.537 | 0.461 | 0.401 | 0.507 | 0.45
NCI-H1734 | 0.355 | 0.276 | 0.344 | 0.409 | 0.368 | 0.524 | 0.477 | 0.477 | 1.05 | 0.578 | 0.823 | 0.891 | 0.836 | 0.621 | 0.471 | 0.471 | 0.566 | 0.502
LC-2-ad | 0.538 | 0.476 | 0.492 | 0.614 | 0.562 | 0.825 | 0.803 | 0.709 | 0.902 | 0.757 | 0.813 | 0.833 | 0.817 | 0.869 | 0.776 | 0.743 | 0.785 | 0.759
NCI-H1651 | 0.363 | 0.254 | 0.341 | 0.338 | 0.251 | 0.793 | 0.668 | 0.517 | 0.956 | 0.927 | 0.922 | 1.18 | 0.977 | 0.671 | 0.562 | 0.587 | 0.664 | 0.58
IA-LM | – | – | – | – | – | – | – | – | 0.559 | – | 0.56 | 0.571 | 0.809 | – | – | – | – | –
NCI-H838 | 0.756 | 0.442 | 0.521 | 0.653 | 0.538 | 0.474 | 0.46 | 0.482 | 1.11 | 0.742 | 1.05 | 1.15 | 0.92 | 0.512 | 0.443 | 0.425 | 0.466 | 0.412
201T | 0.499 | 0.355 | 0.46 | 0.414 | 0.369 | 0.846 | 0.858 | 0.834 | 1.11 | 1.01 | 1.08 | 1.09 | 0.999 | 0.824 | 0.849 | 0.879 | 0.855 | 0.893
NCI-H1650 | 0.419 | 0.397 | 0.38 | 0.358 | 0.293 | 0.463 | 0.454 | 0.465 | – | – | – | – | – | 0.482 | 0.456 | 0.427 | 0.472 | 0.407
HOP-62 | 0.694 | 0.405 | 0.777 | 0.714 | 0.659 | 0.252 | 0.193 | 0.239 | 0.951 | 0.985 | 0.892 | 0.978 | 0.973 | 0.229 | 0.239 | 0.207 | 0.222 | 0.249
EBC-1 | – | – | – | – | – | – | – | – | 1.03 | 0.556 | 0.977 | 1.15 | 1.05 | – | – | – | – | –
Calu-6 | – | – | – | – | – | – | – | – | 1.1 | 0.695 | 0.978 | 0.997 | 1.15 | – | – | – | – | –
SW 900 | 0.636 | 0.539 | 0.506 | 0.465 | 0.502 | 0.417 | 0.427 | 0.429 | – | – | – | – | – | 0.45 | 0.425 | 0.42 | 0.404 | 0.549
NCI-H1648 | – | – | – | – | – | 0.462 | 0.546 | 0.595 | – | – | – | – | – | 0.545 | – | 0.357 | 0.47 | 0.472
NCI-H1703 | – | – | – | – | – | – | – | – | 1.04 | 0.409 | 0.598 | 0.22 | 0.681 | – | – | – | – | –
